Experimental data taken from the CombiSolv-Exp solvation set (Vermeire and Green 2021).

Test: solvent given as SMILES

COC(=O)C1CCCCC1
Settings | solvation free energy, 298 K [kcal/mol]
in O | -3.3

CCC1CO1 (configuration not stated)
Settings | solvation free energy, 298 K [kcal/mol]
in CC(C)O | -3.72
in COC(=O)OC | -4.11
in COC(C)=O | -4.16
in ClC(Cl)Cl | -4.9
in O | -2.93

FC(F)=C(F)C(F)(F)F
Settings | solvation free energy, 298 K [kcal/mol]
in CCCCCCCC(=O)OCC(COC(=O)CCCCCCC)OC(=O)CCCCCCC | -0.41
in CCCCCCCCO | -0.32
in COCCO | 3.88

OCCCl
Settings | solvation free energy, 298 K [kcal/mol]
in Brc1ccccc1 | -4.8
in CCCCCCCCCCO | -5.73
in CCCCCCCCO | -5.87
in Cc1ccc(C)cc1 | -4.77
in Cc1cccc(C)c1 | -4.69
in Cc1ccccc1C | -4.74
in Clc1ccccc1 | -4.62
in O | -6.28

C#CC=C
Settings | solvation free energy, 298 K [kcal/mol]
in C1COCCO1 | -3.21
in CC(C)=O | -3.19
in CC(C)CC(C)(C)C | -2.21
in CN(C)C=O | -3.28
in COC(C)=O | -3.19
in Cc1ccc(C)cc1 | -3.07
in O | 0.04

COc1ccccc1O
Settings | solvation free energy, 298 K [kcal/mol]
in O | -5.67

CC1=CCCC(C)=CCC(C)(C)C=CC1
Settings | solvation free energy, 298 K [kcal/mol]
in O | 0.05

c1ccc(CCc2ccccc2)cc1
Settings | solvation free energy, 298 K [kcal/mol]
in CCCCCCCCO | -8.8

O=C(OC1CCCCC1)c1ccccc1C(=O)OC1CCCCC1
Settings | solvation free energy, 298 K [kcal/mol]
in O | -9.07

CF
Settings | solvation free energy, 298 K [kcal/mol]
in CCCO | 0.03
in O | -0.22

c1ccc2c(c1)[nH]c1ccccc12
Settings | solvation free energy, 298 K [kcal/mol]
in CC(=O)N(C)C | -14
in CN1CCCC1=O | -14.5
in O | -7.18

O=C1CCCC1
Settings | solvation free energy, 298 K [kcal/mol]
in CCCCCCC | -4.53
in CCCCCCCCCCCCCCCC | -4.22
in CCCCCCCCO | -5.02
in CCCCCl | -5.46
in CCCCOCCCC | -4.82
in ClC(Cl)(Cl)Cl | -5.54
in ClCCCl | -6.26
in O | -4.72
in [2H]O[2H] | -4.75

CCn1ccc(NS(=O)(=O)c2ccc(N)cc2)nc1=O
Settings | solvation free energy, 298 K [kcal/mol]
in O | -20.6

Cc1cc(O)ccc1[N+](=O)[O-]
Settings | solvation free energy, 298 K [kcal/mol]
in CCCCOCCCC | -12.1
in O | -9.89

CCCCCCCCCC(=O)O
Settings | solvation free energy, 298 K [kcal/mol]
in O | -5.28

O=Cc1cccc(O)c1
Settings | solvation free energy, 298 K [kcal/mol]
in O | -9.52

COc1c(Cl)ccc(Cl)c1C(=O)O
Settings | solvation free energy, 298 K [kcal/mol]
in O | -9.86

[HH]
Settings | solvation free energy, 298 K [kcal/mol]
in Brc1ccccc1 | 1.77
in C1CCNC1 | 1.62
in C1CCNCC1 | 1.63
in C1CCOC1 | 1.46
in C1COCCO1 | 1.76
in C=CCCCCCC | 1.36
in C=CCCCCCCC=C | 1.6
in CC1COC(=O)O1 | 2.04
in CC#N | 1.45
in CC(=O)OCC(C)C | 1.49
in CC(C)(C)O | 1.49
in CC(C)=O | 1.38
in CC(C)CC(C)(C)C | 1.28
in CC(C)CCO | 1.76
in CC(C)CO | 1.53
in CC(C)N | 1.3
in CC(C)O | 1.45
in CCC(C)=O | 1.45
in CCC(C)O | 1.56
in CCCCC(CC)CO | 1.64
in CCCCCC | 1.24
in CCCCCCC | 1.29
in CCCCCCCC | 1.35
in CCCCCCCCCC | 1.49
in CCCCCCCCCCCCO | 1.9
in CCCCCCCCCCO | 1.83
in CCCCCCCCCO | 1.8
in CCCCCCO | 1.61
in CCCCCO | 1.64
in CCCCCOC(C)=O | 1.91
in CCCCN(CCCC)CCCC | 1.53
in CCCCNCCCC | 1.48
in CCCCO | 1.56
in CCCCOC(C)=O | 1.5
in CCCCOCCCC | 1.42
in CCCCOCCO | 1.67
in CCCN | 1.35
in CCCO | 1.52
in CCN | 1.24
in CCN(CC)CC | 1.33
in CCO | 1.47
in CCOC(C)=O | 1.46
in CCOCC | 1.15
in CCOCCO | 1.7
in CN1CCCC1 | 1.38
in CN1CCCC1=O | 1.98
in CN(C)C=O | 1.84
in CN(C)CCCN | 1.63
in CO | 1.35
in COC(C)=O | 1.42
in COCCO | 1.84
in Cc1cccc(C)c1 | 1.49
in Cc1ccccc1 | 1.62
in ClC(Cl)(Cl)Cl | 1.51
in ClC(Cl)Cl | 1.61
in ClCCCl | 1.72
in ClCCl | 1.57
in Clc1ccccc1 | 1.65
in NCCCN | 2.05
in NCCN | 2.15
in O=C1CCCC1 | 1.72
in O=C1CCCCC1 | 1.75
in OCCO | 2.38
in c1ccccc1 | 1.58
